Measurements taken from the supplement of paper PMC11061612.

What was measured:
SK-N-DZ (Neuroblastoma) = assay: Bliss excess, mean over the matrix (fraction); higher = more synergy
Procedure, shortened: (§1)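 Bliss excess equals the observed combination effect minus the expected value EA + EB − EA·EB, where EA and EB are the effects of each agent alone. Combination Emax is the second-highest inhibition within the matrix. Inhibition was scaled from CellTiter-Glo 2.0 luminescence, with 0 set by vehicle wells and 1 by blank wells, after 72 hours of two-drug dosing of cells plated in 1536-well plates.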

[1] = tested on: NCI-H1648 (Lung Adenocarcinoma); assay: as above
Procedure, shortened: as §1

[2] = tested on: SBC-3 (Small Cell Lung Carcinoma); assay: as above
Procedure, shortened: as §1

[3] = tested on: OVKATE (Ovarian Carcinoma); assay: as above
Procedure, shortened: as §1

SK-MEL-24 (Melanoma) [4] = assay: as above
Procedure, shortened: as §1

[5] = tested on: NCI-H2023 (Non-Small Cell Lung Carcinoma); assay: as above
Procedure, shortened: as §1

[6] = tested on: Daudi (Burkitt's Lymphoma); assay: as above
Procedure, shortened: as §1

C32 (Melanoma) = assay: as above
Procedure, shortened: as §1

[7] = tested on: NCI-H1435 (Non-Small Cell Lung Carcinoma); assay: as above
Procedure, shortened: as §1

[8] = tested on: RS4-11 (B-Lymphoblastic Leukemia); assay: as above
Procedure, shortened: as §1

[9] = tested on: RPMI-8402 (T-Lymphoblastic Leukemia); assay: as above
Procedure, shortened: as §1

[10] = tested on: NCI-H1944 (Lung Adenocarcinoma); assay: as above
Procedure, shortened: as §1

HT-144 (Melanoma) = assay: combination Emax (second highest fraction inhibited in the dose matrix, 72 h); higher = more inhibition; extreme values may be limits of the assay
Procedure, shortened: as §1

[11] = tested on: SW1463 (Colorectal Carcinoma); assay: as above
Procedure, shortened: as §1

[12] = tested on: OVKATE (Ovarian Carcinoma); assay: as above
Procedure, shortened: as §1

SK-MEL-24 (Melanoma) [13] = assay: as above
Procedure, shortened: as §1

[14] = tested on: JURL-MK1 (Chronic Myelogenous Leukemia); assay: as above
Procedure, shortened: as §1

[15] = tested on: NTERA-2-cl-D1 (Other Solid Carcinomas); assay: as above
Procedure, shortened: as §1

[16] = tested on: C2BBe1 (Colorectal Carcinoma); assay: as above
Procedure, shortened: as §1

[17] = tested on: JJN-3 (Plasma Cell Myeloma); assay: as above
Procedure, shortened: as §1

| Structure (SMILES) | Bliss excess (SK-N-DZ (Neuroblastoma)) | Bliss excess [1] | Bliss excess [2] | Bliss excess [3] | Bliss excess (SK-MEL-24 (Melanoma) [4]) | Bliss excess [5] | Bliss excess [6] | Bliss excess (C32 (Melanoma)) | Bliss excess [7] | Bliss excess [8] | Bliss excess [9] | Bliss excess [10] | combination Emax (HT-144 (Melanoma)) | combination Emax [11] | combination Emax [12] | combination Emax (SK-MEL-24 (Melanoma) [13]) | combination Emax [14] | combination Emax [15] | combination Emax [16] | combination Emax [17] |
| --- | --- | --- | --- | --- | --- | --- | --- | --- | --- | --- | --- | --- | --- | --- | --- | --- | --- | --- | --- | --- |
| CN(C)CCCOc1ccc(-c2ccc3ncc4c(c3c2)n(C2CCOCC2)c(=O)n4C)cn1 [AZD0156] + C=CCn1c(=O)c2cnc(Nc3ccc(N4CCN(C)CC4)cc3)nc2n1-c1cccc(C(C)(C)O)n1 [AZD1775] (first compound max 1 µM, partner max 1 µM) | -0.0179 | -0.0468 | -0.0451 | -0.0601 | -0.0255 | 0.0007 | -0.0243 | -0.0348 | -0.0201 | -0.0405 | 0.0026 | -0.0218 | 0.587 | 0.422 | 0.336 | 0.443 | 0.989 | 0.376 | 0.209 | 0.661 |
| CN(C)CCCOc1ccc(-c2ccc3ncc4c(c3c2)n(C2CCOCC2)c(=O)n4C)cn1 [AZD0156] + CCN(CCO)CCCOc1ccc2c(Nc3cc(CC(=O)Nc4cccc(F)c4)[nH]n3)ncnc2c1 [AZD2811] (first compound max 1 µM, 7x7, partner max 1 µM) | 0.0526 | -0.0327 | -0.0422 | -0.0648 | -0.0401 | 0.0066 | 0.107 | -0.0213 | -0.0219 | 0.0512 | -0.0022 | -0.0077 | 0.232 | 0.108 | 0.127 | 0.16 | 0.554 | 0.469 | 0.114 | 0.404 |
| CN(C)CCCOc1ccc(-c2ccc3ncc4c(c3c2)n(C2CCOCC2)c(=O)n4C)cn1 [AZD0156] + C[C@@H]1COCCN1C2=NC(=NC(=C2)C3(CC3)[S@](=N)(=O)C)C4=C5C=CNC5=NC=C4 [AZD6738] (first compound max 1 µM, 7x7, partner max 10 µM) | 0.031 | 0.005 | 0.0039 | -0.0189 | -0.0159 | -0.021 | -0.0031 | -0.0323 | -0.0134 | -0.0192 | 0.0028 | 0.0062 | 0.721 | 0.558 | 0.257 | 0.457 | 0.998 | 0.595 | 0.434 | 0.938 |
| CN(C)CCCOc1ccc(-c2ccc3ncc4c(c3c2)n(C2CCOCC2)c(=O)n4C)cn1 [AZD0156] + O=C(c1cc(Cc2n[nH]c(=O)c3ccccc23)ccc1F)N1CCN(C(=O)C2CC2)CC1 [Olaparib] (first compound max 3 µM, partner max 3 µM) | -0.0533 | 0.0271 | 0.206 | 0.0008 | 0.0037 | 0.0234 | 0.0672 | -0.035 | -0.0277 | 0.104 | 0.244 | 0.106 | 0.381 | 0.169 | 0.214 | 0.227 | 0.431 | 0.162 | 0.285 | 0.213 |
| C=CCn1c(=O)c2cnc(Nc3ccc(N4CCN(C)CC4)cc3)nc2n1-c1cccc(C(C)(C)O)n1 [AZD1775] + C[C@@H]1COCCN1C2=NC(=NC(=C2)C3(CC3)[S@](=N)(=O)C)C4=C5C=CNC5=NC=C4 [AZD6738] (first compound max 1 µM, partner max 10 µM) | 0.0094 | 0.0111 | 0.0197 | -0.0703 | -0.0189 | -0.0674 | 0.0329 | 0.0073 | 0.0291 | 0.0188 | 0.0379 | 0.0456 | 0.777 | 0.822 | 0.422 | 0.725 | 1 | 0.943 | 0.486 | 0.832 |
| C=CCn1c(=O)c2cnc(Nc3ccc(N4CCN(C)CC4)cc3)nc2n1-c1cccc(C(C)(C)O)n1 [AZD1775] + O=C(c1cc(Cc2n[nH]c(=O)c3ccccc23)ccc1F)N1CCN(C(=O)C2CC2)CC1 [Olaparib] (first compound max 1 µM, partner max 10 µM) | -0.0122 | -0.0216 | 0.0028 | -0.0316 | -0.0194 | -0.039 | 0.0043 | -0.0271 | 0.0211 | -0.0192 | 0.0113 | -0.043 | 0.606 | 0.521 | 0.311 | 0.465 | 0.994 | 0.914 | 0.335 | 0.645 |
